Results taken from patent US11753411B2, “Substituted pyrazolo[1,5-a]pyrimidines as TYK2 pseudokinase ligands” (Ventyx Biosciences, Inc., priority 2019, dated 2023).

Tested on: IFN-a/Jak1 Tyk2
Test: Co-stimulation assay in lysed whole blood: IFNa (JAK1/TYK2) stimulated STAT1 phosphorylation
Format: cell-based
Conditions: Homo sapiens, 20 min, 100 ng/mL IFNa (with 10 ng/mL GM-CSF), pSTAT by flow cytometry
Procedure, shortened: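 Lysed human whole blood (RBC-lysed, resuspended in cRPMI) pre-incubated with compound 1 h at 37 °C, then stimulated 20 min with IFNa 100 ng/mL plus GM-CSF 10 ng/mL (final). Fixed, permeabilised, stained for pSTAT1 (PE) and pSTAT5 (AF488); flow cytometry read-out, ≥5,000–10,000 cells acquired.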

Compound	IC50 [nM]
CNC(=O)Nc1cnn2c(NC)cc(Nc3cccc4c3OCCC4)nc12 [Compound 157, 1-(5-(chroman-8-ylamino)-7-(methylamino)pyrazolo[1,5-a]pyrimidin-3-yl)-3-methylurea]	< 1000
CNC(=O)Nc1cnn2c(NC)cc(Nc3cccc4c3N(C)CCO4)nc12 [Compound 163, 1-methyl-3-(5-((4-methyl-3,4-dihydro-2H-benzo[b][1,4]oxazin-5-yl)amino)-7-(methylamino)pyrazolo[1,5-a]pyrimidin-3-yl)urea]	1000 to 10000
CNc1cc(-c2cn(C3CCOCC3)c3ncccc23)nc2c(NC(=O)NCC#N)cnn12 [Compound 137, 1-(cyanomethyl)-3-(7-(methylamino)-5-(1-(tetrahydro-2H-pyran-4-yl)-1H-pyrrolo[2,3-b]pyridin-3-yl)pyrazolo[1,5-a]pyrimidin-3-yl)urea]	< 1000
CNC(=O)Nc1cnn2c(NC)cc(Nc3ccccc3-c3ccccc3)nc12 [Compound 165, 1-(5-([1,1′-biphenyl]-2-ylamino)-7-(methylamino)pyrazolo[1,5-a]pyrimidin-3-yl)-3-methylurea]	≥ 10000
CNC(=O)Nc1cnn2c(NC)cc(Nc3ccccc3OC(F)(F)F)nc12 [Compound 168, 1-methyl-3-(7-(methylamino)-5-((2-(trifluoromethoxy)phenyl)amino)pyrazolo[1,5-a]pyrimidin-3-yl)urea]	1000 to 10000
CNc1cc(Nc2cccc3nccnc23)nc2c(NC(=O)NC3CC3O)cnn12 (stereo not shown) [Compound 30, 1-(2-hydroxycyclopropyl)-3-(7-(methylamino)-5-(quinoxalin-5-ylamino)pyrazolo[1,5-a]pyrimidin-3-yl)urea]	≥ 10000
CNC(=O)Nc1cnn2c(NC)cc(Nc3cc(OC)cc(OC)c3)nc12 [Compound 70, 1-(5-((3,5-dimethoxyphenyl)amino)-7-(methylamino)pyrazolo[1,5-a]pyrimidin-3-yl)-3-methylurea]	< 1000
CNc1cc(Nc2cccc3c2OCCO3)nc2c(NC(=O)NCC3CC3)cnn12 [Compound 103, 1-(cyclopropylmethyl)-3-(5-((2,3-dihydrobenzo[b][1,4]dioxin-5-yl)amino)-7-(methylamino)pyrazolo[1,5-a]pyrimidin-3-yl)urea]	1000 to 10000
CNC(=O)Nc1cnn2c(NC)cc(Nc3cccc4nccnc34)nc12 [Compound 166, 1-methyl-3-(7-(methylamino)-5-(quinoxalin-5-ylamino)pyrazolo[1,5-a]pyrimidin-3-yl)urea]	< 1000
CNC(=O)Nc1cnn2c(NC)cc(Nc3ccc4c(c3)OCCO4)nc12 [Compound 107, 1-(5-((2,3-dihydrobenzo[b][1,4]dioxin-6-yl)amino)-7-(methylamino)pyrazolo[1,5-a]pyrimidin-3-yl)-3-methylurea]	1000 to 10000
CNc1cc(Nc2cc(F)cc3c2OCCO3)nc2c(NC(=O)NC3CC3)cnn12 [Compound 69, 1-cyclopropyl-3-(5-((7-fluoro-2,3-dihydrobenzo[b][1,4]dioxin-5-yl)amino)-7-(methylamino)pyrazolo[1,5-a]pyrimidin-3-yl)urea]	< 1000
CNc1cc(Nc2cccc3c2OCCO3)nc2c(NC(=O)NC3CC(F)(F)C3)cnn12 [Compound 34, 1-(3,3-difluorocyclobutyl)-3-(5-((2,3-dihydrobenzo[b][1,4]dioxin-5-yl)amino)-7-(methylamino)pyrazolo[1,5-a]pyrimidin-3-yl)urea]	1000 to 10000
CNc1c(F)c(Nc2cccc3c2OCCO3)nc2c(NC(=O)N[C@@H]3C[C@@H]3F)cnn12 [Compound 55, 1-(5-((2,3-dihydrobenzo[b][1,4]dioxin-5-yl)amino)-6-fluoro-7-(methylamino)pyrazolo[1,5-a]pyrimidin-3-yl)-3-((1R,2S)-2-fluorocyclopropyl)urea]	≥ 10000
CNc1cc(Nc2cccc3c2OCCO3)nc2c(NC(=O)NC3CC(CO)C3)cnn12 (stereo not shown) [Compound 47, 1-(5-((2,3-dihydrobenzo[b][1,4]dioxin-5-yl)amino)-7-(methylamino)pyrazolo[1,5-a]pyrimidin-3-yl)-3-(3-(hydroxymethyl)cyclobutyl)urea]	< 1000
CNc1cc(Nc2cc(F)cc3c2OCCO3)nc2c(NC(=O)N[C@@H]3C[C@H]3F)cnn12 [Compound 187, 1-(5-((7-fluoro-2,3-dihydrobenzo[b][1,4]dioxin-5-yl)amino)-7-(methylamino)pyrazolo[1,5-a]pyrimidin-3-yl)-3-((1R,2R)-2-fluorocyclopropyl)urea]	1000 to 10000
[2H]C1([2H])Oc2cc(F)cc(Nc3cc(NC)n4ncc(NC(=O)N[C@@H]5C[C@@H]5F)c4n3)c2OC1([2H])[2H] [Compound 182, 1-(5-((7-fluoro-2,3-dihydrobenzo[b][1,4]dioxin-5-yl-2,2,3,3-d4)amino)-7-(methylamino)pyrazolo[1,5-a]pyrimidin-3-yl)-3-((1R,2S)-2-fluorocyclopropyl)urea]	< 1000
CNC(=O)Nc1cnn2c(NC)cc(Nc3cc(OC)cc4c3OCCO4)nc12 [Compound 81, 1-(5-((7-methoxy-2,3-dihydrobenzo[b][1,4]dioxin-5-yl)amino)-7-(methylamino)pyrazolo[1,5-a]pyrimidin-3-yl)-3-methylurea]	< 1000

Compound	IC50 [nM]
CNc1cc(Nc2cccc3nccnc23)nc2c(NC(=O)NCC#N)cnn12 [Compound 132, 1-(cyanomethyl)-3-(7-(methylamino)-5-(quinoxalin-5-ylamino)pyrazolo[1,5-a]pyrimidin-3-yl)urea]	< 1000
[2H]C([2H])([2H])Nc1cc(-c2cn(C3CCOCC3)c3ncccc23)nc2c(NC(=O)NC)cnn12 [Compound 73, 1-methyl-3-(7-((methyl-d3)amino)-5-(1-(tetrahydro-2H-pyran-4-yl)-1H-pyrrolo[2,3-b]pyridin-3-yl)pyrazolo[1,5-a]pyrimidin-3-yl)urea]	< 1000
CNC(=O)Nc1cnn2c(NC)cc(Nc3cccc4c3CCCO4)nc12 [Compound 154, 1-(5-(chroman-5-ylamino)-7-(methylamino)pyrazolo[1,5-a]pyrimidin-3-yl)-3-methylurea]	< 1000
CNC(=O)Nc1cnn2c(NC)cc(Nc3cc(F)cc4c3OCCC4)nc12 [Compound 158, 1-(5-((6-fluorochroman-8-yl)amino)-7-(methylamino)pyrazolo[1,5-a]pyrimidin-3-yl)-3-methylurea]	< 1000
CNC(=O)Nc1cnn2c(NC)cc(Nc3cncc4ccccc34)nc12 [Compound 91, 1-(5-(isoquinolin-4-ylamino)-7-(methylamino)pyrazolo[1,5-a]pyrimidin-3-yl)-3-methylurea]	1000 to 10000
CNc1cc(Nc2cccc3c2OCCO3)nc2c(NC(=O)NC3CC3O)cnn12 (stereo not shown) [Compound 32, 1-(5-((2,3-dihydrobenzo[b][1,4]dioxin-5-yl)amino)-7-(methylamino)pyrazolo[1,5-a]pyrimidin-3-yl)-3-(2-hydroxycyclopropyl)urea]	≥ 10000
CNC(=O)Nc1cnn2c(NC)cc(Nc3cccc4c3NC(=O)CO4)nc12 [Compound 95, 1-methyl-3-(7-(methylamino)-5-((3-oxo-3,4-dihydro-2H-benzo[b][1,4]oxazin-5-yl)amino)pyrazolo[1,5-a]pyrimidin-3-yl)urea]	1000 to 10000
CNC(=O)Nc1cnn2c(NC)cc(Nc3cccn(-c4ccc(OC)nn4)c3=O)nc12 [Compound 17, 1-(5-((1-(6-methoxypyridazin-3-yl)-2-oxo-1,2-dihydropyridin-3-yl)amino)-7-(methylamino)pyrazolo[1,5-a]pyrimidin-3-yl)-3-methylurea]	1000 to 10000
CNc1cc(Nc2cc(F)cc3c2OCCO3)nc2c(NC(=O)N[C@@H]3C[C@@H]3C#N)cnn12 [Compound 51, 1-((1R,2S)-2-cyanocyclopropyl)-3-(5-((7-fluoro-2,3-dihydrobenzo[b][1,4]dioxin-5-yl)amino)-7-(methylamino)pyrazolo[1,5-a]pyrimidin-3-yl)urea]	< 1000
[2H]C([2H])([2H])Nc1cc(Nc2cccc3c2OCCO3)nc2c(NC(=O)NC)cnn12 [Compound 13, 1-(5-((2,3-dihydrobenzo[b][1,4]dioxin-5-yl)amino)-7-((methyl-d3)amino)pyrazolo[1,5-a]pyrimidin-3-yl)-3-methylurea]	< 1000
CNC(=O)Nc1cnn2c(NC)cc(Nc3cccc4c3OCCN4C)nc12 [Compound 62, 1-methyl-3-(5-((4-methyl-3,4-dihydro-2H-benzo[b][1,4]oxazin-8-yl)amino)-7-(methylamino)pyrazolo[1,5-a]pyrimidin-3-yl)urea]	1000 to 10000
CNc1cc(Nc2cccc3occc23)nc2c(NC(=O)N[C@@H]3C[C@@H]3F)cnn12 [Compound 50, 1-(5-(benzofuran-4-ylamino)-7-(methylamino)pyrazolo[1,5-a]pyrimidin-3-yl)-3-((1R,2S)-2-fluorocyclopropyl)urea]	< 1000
CNC(=O)Nc1cnn2c(NC)cc(Nc3cccc4ccccc34)nc12 [Compound 160, 1-methyl-3-(7-(methylamino)-5-(naphthalen-1-ylamino)pyrazolo[1,5-a]pyrimidin-3-yl)urea]	< 1000
CNc1cc(Nc2cccc3c2OCCO3)nc2c(NC(=O)N[C@H](C)C#N)cnn12 [Compound 122, (R)-1-(1-cyanoethyl)-3-(5-((2,3-dihydrobenzo[b][1,4]dioxin-5-yl)amino)-7-(methylamino)pyrazolo[1,5-a]pyrimidin-3-yl)urea]	< 1000
CNC(=O)Nc1cnn2c(NC)cc(Nc3cc(C)cc(C)c3)nc12 [Compound 152, 1-(5-((3,5-dimethylphenyl)amino)-7-(methylamino)pyrazolo[1,5-a]pyrimidin-3-yl)-3-methylurea]	< 1000
CNC(=O)Nc1cnn2c(NC)cc(Nc3cccc4c3OC(F)(F)O4)nc12 [Compound 115, 1-(5-((2,2-difluorobenzo[d][1,3]dioxol-4-yl)amino)-7-(methylamino)pyrazolo[1,5-a]pyrimidin-3-yl)-3-methylurea]	1000 to 10000
CNc1cc(Nc2cc(C#N)cc3c2OCCO3)nc2c(NC(=O)NC3CC3)cnn12 [Compound 89, 1-(5-((7-cyano-2,3-dihydrobenzo[b][1,4]dioxin-5-yl)amino)-7-(methylamino)pyrazolo[1,5-a]pyrimidin-3-yl)-3-cyclopropylurea]	< 1000
